Test results from US6593363B1, “Diterpene derivatives and anti-inflammatory analgesic agents comprising the same” (Sae Han Pharm. Co., Ltd., priority 1998, dated 2003).

Key:
Raw 264.7 = assay: Cytotoxicity, MTT assay; type: cell-based; details: Raw 264.7, MTT assay at 48 hours after sample treatment
Description: (§1) To investigate the utility of diterpene derivatives synthesized, cytotoxicities of some derivatives were tested.
(§2) The cytotoxicity was tested using Raw 264.7. The cytotoxicity and non-cytotoxicity were judged by performing MTT assay at 48 hours after sample treatment.

COX-2 = molecular target: T1, COX-2 (Ovis aries, UniProt P79208); assay: Inhibition of PGE2 synthesis by inhibiting COX-2 activity (in vitro, TLC/autoradiography); type: biochemical, sheep; details: for IC50: 3 Unit COX-2 from sheep placenta, [1-14C] arachidonic acid, 37° C. for 20 min
T1 construct: 3 Unit of COX-2 (Layman chemical) that is separated from sheep placenta and purified; purchased Layman chemical (sic); host or cells: sheep placenta (tissue-derived)
T1 sequence (P79208 17-603): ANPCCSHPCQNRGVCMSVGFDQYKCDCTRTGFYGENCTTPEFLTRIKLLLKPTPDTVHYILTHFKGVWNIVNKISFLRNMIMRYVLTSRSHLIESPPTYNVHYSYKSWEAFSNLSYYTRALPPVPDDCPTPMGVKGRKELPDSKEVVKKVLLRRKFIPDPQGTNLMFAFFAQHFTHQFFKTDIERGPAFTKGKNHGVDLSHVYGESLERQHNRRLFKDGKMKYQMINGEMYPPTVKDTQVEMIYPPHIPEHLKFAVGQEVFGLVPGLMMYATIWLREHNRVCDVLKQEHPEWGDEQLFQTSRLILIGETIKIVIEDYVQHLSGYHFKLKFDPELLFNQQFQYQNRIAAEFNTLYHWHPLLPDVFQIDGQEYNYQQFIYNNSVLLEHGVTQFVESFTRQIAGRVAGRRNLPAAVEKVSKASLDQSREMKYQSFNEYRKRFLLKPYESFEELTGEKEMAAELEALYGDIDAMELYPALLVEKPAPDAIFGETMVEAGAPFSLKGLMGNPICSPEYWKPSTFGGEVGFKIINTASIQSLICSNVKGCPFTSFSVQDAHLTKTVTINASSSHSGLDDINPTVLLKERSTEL
Description: The inhibition effect of the novel derivatives against PGE2 synthesis was tested in vitro. […] The novel derivatives were synthesized from (−)-pimara-9(11), 15-diene-4-carboxylic acid, which is a diterpene compound isolated from root-bark of Acanthopanax Koreanum.
The mixture was stranded on ice for 5 min. To the mixture, the sample for assay of COX-2 activity was added, and then incubated on ice for 10 min. After preincubation, 0.02 μCi of [1-^14C] arachidonic acid, as an substrate, was added, and reacted at 37° C. for 20 min. For the termination of the reaction, 10 μl of 2 M HCl was added. Prostaglandin produced was extracted with ethylether twice. Two ethylether layers were integrated, and the solvent was evaporated at a 37° C. water-bath. […] PGE2 part of TLC plate developed was observed using autoradiography (PACKARD). The amount of PGE2 decreased by the sample was compared with reference, and then COX-2 inhibition activity of the sample was determined.

[1] = tested on: mono-arthritis model, tibeo-calcanean joint; assay: Anti-inflammatory activity against acute inflammation, adjuvant mono-arthritis model (edema index); type: in vivo; details: rat, 5 mg/kg intraperitoneal; for edema index size: 1 hour after inducing inflammation; for effect on edema index compared with koprofen or indometacin: after 4 hours
Description: For some of the natural single material and synthetic derivatives thereof, of which the inhibition effect against PGE2 synthesis was tested in Experimental example 1, the anti-inflammatory activity against arthritis was tested using a mono-arthritis model as follows:
Derivatives synthesized were dissolved in the mixed solvent of ethanol: Tween 80: saline (1:1:8), and then administered by intrapertioneal injection. Referring to the result of the in vitro test, 5 mg/kg was used as a dose for primary screening test. Adjuvant that was dissolved in mineral oil and then sterilized, was administered into tibeo-calcanean joint of right crus posterius of rat to induce arthritis. The injection volume is controlled to be contained M. butyricum 100 μg/50 μl.
Edema degree was determined primarily, and the degree was used as an index of inflammation. The degree was determined by the estimation method for section area of tibeo-calcanean joint part. Width and length measurements of the joint part were taken according to time schedule upon inducing inflammation, and the width multiplied by the length. The multiplied value was then used as a section area index (SAI). On the basis of the section area index, edema index was calculated as follows: […]
(SAI of inflammatory joint−SAI of normal joint)
Each index was determined at 1, 4 and 24 hours after adjuvant injection. The index value determined at the same part before adjuvant injection was used as one of normal joint.
Unpaired t-test or ANOVA using Fisher PLSD verified the statistical significance.

Cytotoxicity, MTT assay = type: cell-based; details: mouse, Raw 264.7 cells; Raw 264.7, MTT assay at 48 hours after sample treatment
Description: as §1, §2

Row | IC50 (COX-2) | Compound | further results
1 | > 2000 µM | 13-Isoxazolinyl-(−)-pimara-9(11)-en-4-carboxylic acid [Example 21] | IC50 (Raw 264.7): 250 µM
2 |  | 16-Hydroxy-(−)-pimara-4-carboxylic acid [Example 16] | IC50 (Raw 264.7): 137 µM; inhibition effect against PGE2 synthesis (in words) (COX-2): excellent inhibition effect
3 | > 2000 µM | 16-Methoxyethoxymethoxy-(−)-Pimara-9(11)-En-4-Carboxylic Acid [Example 52] | 
4 | 790 µM | C=C[C@@]1(C)CC=C2C(CCC3[C@](C)(C(=O)O)CCC[C@@]23C)C1 (single isomer, unassigned; (-)) [Natural Component, (−)-pimara-9(11),15-diene-4-carboxylic acid, reference compound] | 
5 | > 2000 µM | C=CC1(C)CC=C2C(CCC3C(C)(CO)CCCC23C)C1 (stereo not drawn) [Example 1, 4-Hydroxymethyl-(−)-pimara-9(11),15-diene] | 
6 |  | C=CC1(C)CC=C2C(CCC3C(C)(C=CC(=O)O)CCCC23C)C1 (stereo not drawn) [Example 7, 4-Carboxyvinyl-(−)-pimara-9(11),15-diene] | inhibition effect against PGE2 synthesis (in words) (COX-2): excellent inhibition effect
7 | 69.7 µM | C=C[C@@]1(C)CC=C2C(CCC3[C@@]2(C)CCC[C@@]3(C)/C=C/C(=O)O)C1 (stereo partly drawn) [Example 7, 4-Carboxyvinyl-(−)-pimara-9(11),15-diene] | IC50 at 48 h (Cytotoxicity, MTT assay): 139 µM
8 | 105 µM | C=C[C@@]1(C)CC=C2[C@@H](CC[C@@H]3[C@](C)(CCC(=O)O)CCC[C@@]23C)C1 [Example 9, 4-Carboxyethyl-(−)-pimara-9(11),15-diene] | edema index size [1]: not more then half; effect on edema index compared with koprofen or indometacin [1]: even superior effect; IC50 at 48 h (Cytotoxicity, MTT assay): 114 µM; inhibition effect against PGE2 synthesis (in words) (COX-2): excellent inhibition effect
9 | > 2000 µM | C=C[C@@]1(C)CC=C2C(CCC3[C@](C)(C(N)=O)CCC[C@@]23C)C1 (stereo partly drawn) [Example 11, 4-Carbamoyl-(−)-pimara-9(11), 15-diene] | 
10 | 41.9 µM | C=C[C@@]1(C)CC=C2C(CCC3[C@](C)(C(=O)NN)CCC[C@@]23C)C1 (stereo partly drawn) [Example 13, 4-Carbazoyl-(−)-pimara-9(11), 15-diene] | 
11 | > 2000 µM | C[C@]1(CCO)CC=C2C(CCC3[C@](C)(C(=O)O)CCC[C@@]23C)C1 (stereo partly drawn) [Example 15, 16-Hydroxy-(−)-pimara-9(11)-en-4-carboxylic acid] | IC50 at 48 h (Cytotoxicity, MTT assay): 139 µM
12 | 26.8 µM | C=C[C@@]1(C)CC=C2C(CCC3[C@@]2(C)CCC[C@@]3(C)/C=C/C=C/C(=O)O)C1 (stereo partly drawn) [Example 29, 4-Carboxybutadienyl-(−)-pimara-9(11),15-diene] | 
13 | 63.8 µM | C=CC1(C)CC=C2C(CCC3C(C)(CCC=CC(=O)O)CCCC23C)C1 (stereo not drawn) [Example 33, 4-Carboxyhomoallyl-(−)-pimara-9(11),15-diene] | 
14 | > 2000 µM | COCC[C@@]1(C)CC=C2[C@@H](CC[C@@H]3[C@](C)(C(=O)O)CCC[C@@]23C)C1 [Example 46, 16-Methoxy-(−)-Pimara-9(11)-En-4-Carboxylic Acid] | 
15 | 1420 µM | CC(=O)OCCC1(C)CC=C2C(CCC3C(C)(C(=O)O)CCCC23C)C1 (stereo not drawn) [Example 48, 16-Acetyloxy-(−)-Pimara-9(11)-En-4-Carboxylic Acid] | 
16 | > 2000 µM | COCOCC[C@@]1(C)CC=C2[C@@H](CC[C@@H]3[C@](C)(C(=O)O)CCC[C@@]23C)C1 [Example 50, 16-Methoxymethoxy-(−)-Pimara-9(11)-En-4-Carboxylic Acid] | 
17 | > 2000 µM | CON=CCC1(C)CC=C2C(CCC3C(C)(C(=O)O)CCCC23C)C1 (stereo not drawn) [Example 55, 16-Methoxyimino-(−)-Pimara-9(11)-En-4-Carboxylic Acid] | 

Row | Compound | IC50 (COX-2) | further results
18 | C=CC1(C)CC=C2C(CCC3C(C)(CC(=O)O)CCCC23C)C1 (stereo not drawn) [Example 5, 4-Carboxymethyl-(−)-pimara-9(11),15-diene] | 82.3 µM | edema index size [1]: not more then half; effect on edema index compared with koprofen or indometacin [1]: even superior effect; IC50 (Raw 264.7): 140 µM; inhibition effect against PGE2 synthesis (in words) (COX-2): excellent inhibition effect
19 | C=CC1(C)CC=C2C(CCC3C(C)(C(=O)NC)CCCC23C)C1 (stereo not drawn) [Example 12, 4-(N-methyl)carbamoyl-(−)-pimara-9(11), 15-diene] | > 2000 µM | 
20 | C=CC1(C)CC=C2C(CCC3C(C)(C(=O)NO)CCCC23C)C1 (stereo not drawn) [Example 14, 4-(N-hydroxy)carbaomyl-(−)-pimara-9(11), 15-diene] | 819 µM | 
21 | CC1(CCO)CC(O)C2C(CCC3C(C)(C(=O)O)CCCC23C)C1 (stereo not drawn) [Example 19, 11,16-Dihydroxy-(−)-pimara-4-carboxylic acid] | > 2000 µM | IC50 (Raw 264.7): 152 µM
22 | C=CC1(C)CC=C2C(CCC3C(C)(CC(=O)NS(=O)(=O)c4ccc(I)cc4)CCCC23C)C1 (stereo not drawn) [Example 38, 4-(N-pipsyl)carbamoylmethyl-(−)-pimara-9(11),15-diene] | 72.2 µM | 
23 | C=CC1(C)CC=C2C(CCC3C(C)(CCC(=O)NS(=O)(=O)c4ccc(I)cc4)CCCC23C)C1 (stereo not drawn) [Example 40, 4-(N-pipsyl)carbamoylethyl-(−)-pimara-9(11),15-diene] | 60.7 µM | 
24 | C=CC1(C)CC=C2C(CCC3C(C)(CCC(=O)NS(C)(=O)=O)CCCC23C)C1 (stereo not drawn) [Example 41, 4-(N-methanesulfonyl)carbamoylethyl-(−)-pimara-9(11),15-diene] | 180 µM | 
25 | C=CC1(C)CC=C2C(CCC3C(C)(C=CC=CC(=O)NS(=O)(=O)c4ccc(I)cc4)CCCC23C)C1 (stereo not drawn) [Example 43, 4-(N-Pipsyl)Carbamoylbutadienyl-(−)-Pimara-9(11),15-Diene] | 25.6 µM | 
